Test results: PubChem BioAssay AID1963868 (Molecular Pharmacology Branch, DTP, NCI, 2024)

System: KRAS PDC tumor spheroids (HUVEC+MSC), viability
Test: Anticancer human tumor 254851-301-R-J1-PDC patient-derived colon carcinoma cell line growth inhibition [KRAS2]
Details: for IC50: curve of first compound; for viability, T/C: stronger effect = lower value
Excerpt: Multicellular complex tumor spheroid response to RAS pathway inhibitors in combination with a targeted agents in patient-derived cell lines with oncogenic KRAS variants from multiple cancer types
A high-throughput screen of multi-cell type tumor spheroids was designed to identify active combinations of targeted small molecules and KRAS pathway inhibitors. Complex spheroids include a stromal component modeled by human endothelial cells (HUVEC) and fibroblasts modeled by human mesenchymal stem cells (MSCs). The concentration ranges selected for each drug and investigational agent were based upon clinically achievable concentrations if the clinical Cmax of the agent was known.
Compounds. The drugs and investigational agents: BI-3406 (NSC825286), BAY-293 (NSC824723), batoprotafib (TNO155; NSC825523), sotorasib (AMG 510; NSC818433), MRTX1257 (NSC819558), elimusertib (BAY 1895344; NSC800525), molibresib (GSK525762; NSC774829), temuterkib (LY3214996; NSC803410), venetoclax (NSC766270), alisertib (NSC759677), olaparib (NSC753686), talazoparib (NSC767125), erdafitinib (NSC781556), ipatasertib (NSC767898), cabozantinib (NSC761068), nintedanib (NSC756659), abemaciclib (NSC768073), docetaxel (NSC628503), trametinib (NSC758246), and sapanisertib (NSC764658) were obtained from the National Cancer Institute (NCI) Developmental Therapeutics Program Chemical Repository. The FDA-approved anticancer drug set is available from the Developmental Therapeutics Program. […] The stock solutions were prepared in dimethyl sulfoxide (DMSO, Sigma-Aldrich, St. Louis, MO, cat. D2650) at 800-fold the tested concentration and stored at -70 degrees C prior to their use. All drugs and investigational agents were tested over a range starting from a high concentration at or near the clinical Cmax and decreasing in half-log increments. If the clinical Cmax for an agent had not been determined, the highest concentration tested was 10 microM.
Cell Culture. All cells were maintained in an incubator at 37 degrees C and 5% CO2 with 95% humidity. The PDC lines were cultured according to standard operating procedures established by the NCI PDMR (https://pdmr.cancer.gov/sops/default.htm). Briefly, all PDCs were thawed and cultured in Matrigel-coated flasks prepared with a working solution of 1X Ham's F-12 nutrient mix, without supplementation (Invitrogen, Waltham, MA, cat. 11765054), 100 U/mL penicillin-streptomycin (Invitrogen, cat. 15140122), and 2.5% Matrigel (Corning Inc., Corning, NY, cat. 354248) for the first three passages. All PDCs were cultured in complete DMEM/F-12 media containing advanced DMEM/F-12 (Invitrogen, cat. 12634028), 4.9% defined fetal bovine serum, heat inactivated (HyClone Laboratories Inc., Logan, UT, cat. SH30070.03HI), 389 ng/mL hydrocortisone (Sigma-Aldrich, cat. H4001), 9.7 ng/mL human EGF recombinant protein (Invitrogen, cat. PHG0313), 23.4 microg/mL adenine (Sigma-Aldrich, cat. A2786), 97.3 U/mL penicillin-streptomycin (Invitrogen, cat. 15140122), 1.9 mM L-glutamine (Invitrogen, cat. 25030081), and 9.7 microM Y-27632 dihydrochloride (Tocris Bioscience, Bristol, United Kingdom, cat. 1254). The PDCs were cultured in complete DMEM/F12 media without 9.7 microM Y-27632 dihydrochloride for at least two passages prior to the screen. The established cell line HOP-62 was cultured in RPMI 1640 medium, HEPES (Invitrogen, cat. 22400105) with 10% defined fetal bovine serum (HyClone Laboratories Inc., cat. SH30070.03) and 2 mM L-glutamine (Invitrogen, cat. 25030081). The pooled donor HUVEC were cultured in endothelial cell growth medium 2 (PromoCell, Heidelberg, Germany, cat. C-22011) and the hMSC were cultured in mesenchymal stem cell growth medium 2 (PromoCell, cat. C-28009). For all experiments, HUVEC and hMSC were used at passages </=5, while the malignant cell lines were used at passages </=15. […]

[1] = second compound 0.1 µM, first compound 0.000316 µM
[2] = second compound 0.1 µM, first compound 0.001 µM
[3] = second compound 0.1 µM, first compound 0.00316 µM
[4] = second compound 0.1 µM, first compound 0.01 µM
[5] = second compound 0.1 µM, first compound 0.0316 µM
[6] = second compound 0.1 µM, first compound 0.1 µM
[7] = second compound 0.316 µM, first compound 0.000316 µM
[8] = second compound 0.316 µM, first compound 0.001 µM
[9] = second compound 0.316 µM, first compound 0.00316 µM
[10] = second compound 0.316 µM, first compound 0.01 µM
[11] = second compound 0.316 µM, first compound 0.0316 µM
[12] = second compound 0.316 µM, first compound 0.1 µM
[13] = second compound 1 µM, first compound 0.000316 µM
[14] = second compound 1 µM, first compound 0.001 µM
[15] = second compound 1 µM, first compound 0.00316 µM
[16] = second compound 1 µM, first compound 0.01 µM
[17] = second compound 1 µM, first compound 0.0316 µM
[18] = second compound 1 µM, first compound 0.1 µM
[19] = second compound 3.16 µM, first compound 0.000316 µM
[20] = second compound 3.16 µM, first compound 0.001 µM
[21] = second compound 3.16 µM, first compound 0.00316 µM
[22] = second compound 3.16 µM, first compound 0.01 µM
[23] = second compound 3.16 µM, first compound 0.0316 µM
[24] = second compound 3.16 µM, first compound 0.1 µM
[25] = second compound 10 µM, first compound 0.000316 µM
[26] = second compound 10 µM, first compound 0.001 µM
[27] = second compound 10 µM, first compound 0.00316 µM
[28] = second compound 10 µM, first compound 0.01 µM
[29] = second compound 10 µM, first compound 0.0316 µM
[30] = second compound 10 µM, first compound 0.1 µM
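Note: spheroids exposed to compounds for seven days before readout.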
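Throughout, for viability, T/C: 100% = DMSO vehicle control luminescence of the spheroids.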

**Q.** With `CC(C)n1nc(-c2ccc3oc(N)nc3c2)c2c(N)ncnc21` + COc1cc2nc(C)nc(NC(C)c3cc(N)cc(C(F)(F)F)c3)c2cc1OC1CCOC1 as the compound, how does the IC50 (second compound 0.1 µM) read?
**A.** 20.7 nM

**Q.** What about the IC50 (second compound 0.316 µM) of the same compound?
**A.** 21.1 nM

**Q.** What about the IC50 (second compound 1 µM) of the same compound?
**A.** 20.7 nM

**Q.** What about the IC50 (second compound 3.16 µM) of the same compound?
**A.** 20.1 nM

**Q.** And the IC50 (second compound 10 µM)?
**A.** 11.6 nM

**Q.** And the viability, T/C [1]?
**A.** 99%

**Q.** What about the viability, T/C [2] of the same compound?
**A.** 118%

**Q.** What about the viability, T/C [3] of the same compound?
**A.** 91.2%

**Q.** What about the viability, T/C [4] of the same compound?
**A.** 76.2%

**Q.** And the viability, T/C [5]?
**A.** 34.7%

**Q.** What about the viability, T/C [6] of the same compound?
**A.** 21.4%

**Q.** And the viability, T/C [7]?
**A.** 102%

**Q.** And the viability, T/C [8]?
**A.** 100%

**Q.** What about the viability, T/C [9] of the same compound?
**A.** 81.7%

**Q.** What about the viability, T/C [10] of the same compound?
**A.** 70.2%

**Q.** What about the viability, T/C [11] of the same compound?
**A.** 38.7%

**Q.** And the viability, T/C [12]?
**A.** 24%

**Q.** And the viability, T/C [13]?
**A.** 88.7%

**Q.** What about the viability, T/C [14] of the same compound?
**A.** 98.6%

**Q.** And the viability, T/C [15]?
**A.** 87.2%

**Q.** What about the viability, T/C [16] of the same compound?
**A.** 72.2%

**Q.** What about the viability, T/C [17] of the same compound?
**A.** 37%

**Q.** What about the viability, T/C [18] of the same compound?
**A.** 23.6%

**Q.** What about the viability, T/C [19] of the same compound?
**A.** 85.3%

**Q.** What about the viability, T/C [20] of the same compound?
**A.** 98.2%

**Q.** What about the viability, T/C [21] of the same compound?
**A.** 88.2%

**Q.** And the viability, T/C [22]?
**A.** 76.7%

**Q.** What about the viability, T/C [23] of the same compound?
**A.** 32.6%

**Q.** What about the viability, T/C [24] of the same compound?
**A.** 22.5%

**Q.** What about the viability, T/C [25] of the same compound?
**A.** 86.4%

**Q.** And the viability, T/C [26]?
**A.** 97%

**Q.** And the viability, T/C [27]?
**A.** 73.7%

**Q.** What about the viability, T/C [28] of the same compound?
**A.** 51.9%

**Q.** What about the viability, T/C [29] of the same compound?
**A.** 34.2%

**Q.** And the viability, T/C [30]?
**A.** 21%

**Q.** For `CC(C)n1nc(-c2ccc3oc(N)nc3c2)c2c(N)ncnc21` + CNCc1ccccc1-c1csc(C(C)Nc2nc(C)nc3cc(OC)c(OC)cc23)c1, which IC50 (second compound 0.1 µM) is on record?
**A.** 18.6 nM

**Q.** And the IC50 (second compound 0.316 µM)?
**A.** 19.7 nM

**Q.** What about the IC50 (second compound 1 µM) of the same compound?
**A.** 17.4 nM

**Q.** And the IC50 (second compound 3.16 µM)?
**A.** 6.04 nM

**Q.** What about the IC50 (second compound 10 µM) of the same compound?
**A.** < 0.316 nM

**Q.** And the viability, T/C [1]?
**A.** 110%

**Q.** And the viability, T/C [2]?
**A.** 98.6%

**Q.** What about the viability, T/C [3] of the same compound?
**A.** 89.2%

**Q.** And the viability, T/C [4]?
**A.** 64.8%

**Q.** What about the viability, T/C [5] of the same compound?
**A.** 36.8%

**Q.** What about the viability, T/C [6] of the same compound?
**A.** 23.3%

**Q.** What about the viability, T/C [7] of the same compound?
**A.** 96.1%

**Q.** And the viability, T/C [8]?
**A.** 105%

**Q.** What about the viability, T/C [9] of the same compound?
**A.** 82%

**Q.** What about the viability, T/C [10] of the same compound?
**A.** 73.4%

**Q.** What about the viability, T/C [11] of the same compound?
**A.** 33.8%

**Q.** What about the viability, T/C [12] of the same compound?
**A.** 23.4%

**Q.** And the viability, T/C [13]?
**A.** 88.6%

**Q.** And the viability, T/C [14]?
**A.** 95%

**Q.** And the viability, T/C [15]?
**A.** 80.4%

**Q.** And the viability, T/C [16]?
**A.** 68%

**Q.** And the viability, T/C [17]?
**A.** 31.4%

**Q.** And the viability, T/C [18]?
**A.** 19.5%

**Q.** What about the viability, T/C [19] of the same compound?
**A.** 81.1%

**Q.** And the viability, T/C [20]?
**A.** 76.7%

**Q.** What about the viability, T/C [21] of the same compound?
**A.** 53.8%

**Q.** And the viability, T/C [22]?
**A.** 45.9%

**Q.** What about the viability, T/C [23] of the same compound?
**A.** 25%

**Q.** And the viability, T/C [24]?
**A.** 9.11%

**Q.** What about the viability, T/C [25] of the same compound?
**A.** 0.21%

**Q.** And the viability, T/C [26]?
**A.** 0.19%

**Q.** What about the viability, T/C [27] of the same compound?
**A.** 0.17%

**Q.** What about the viability, T/C [28] of the same compound?
**A.** 0.14%

**Q.** What about the viability, T/C [29] of the same compound?
**A.** 0.14%

**Q.** What about the viability, T/C [30] of the same compound?
**A.** 0.19%

**Q.** Which results are given for `CC(=O)Nc1cccc(-n2c(=O)n(C3CC3)c(=O)c3c(Nc4ccc(I)cc4F)n(C)c(=O)c(C)c32)c1` + CNCc1ccccc1-c1csc(C(C)Nc2nc(C)nc3cc(OC)c(OC)cc23)c1?
**A.** IC50 (second compound 0.1 µM): 4.7 nM; IC50 (second compound 0.316 µM): 5.18 nM; IC50 (second compound 1 µM): 2.4 nM; IC50 (second compound 3.16 µM): 0.639 nM; IC50 (second compound 10 µM): < 0.1 nM; viability, T/C (second compound 0.1 µM, first compound 0.0001 µM): 101%; viability, T/C [1]: 101%; viability, T/C [2]: 87.7%; viability, T/C [3]: 71%; viability, T/C [4]: 11.4%; viability, T/C [5]: 2.93%; viability, T/C (second compound 0.316 µM, first compound 0.0001 µM): 82.5%; viability, T/C [7]: 99.8%; viability, T/C [8]: 87.1%; viability, T/C [9]: 78.2%; viability, T/C [10]: 12.6%; viability, T/C [11]: 2.77%; viability, T/C (second compound 1 µM, first compound 0.0001 µM): 94.4%; viability, T/C [13]: 94.9%; viability, T/C [14]: 88.2%; viability, T/C [15]: 37.9%; viability, T/C [16]: 5.82%; viability, T/C [17]: 2.26%; viability, T/C (second compound 3.16 µM, first compound 0.0001 µM): 72.5%; viability, T/C [19]: 74.9%; viability, T/C [20]: 34.9%; viability, T/C [21]: 0.57%; viability, T/C [22]: 0.32%; viability, T/C [23]: 0.28%; viability, T/C (second compound 10 µM, first compound 0.0001 µM): 0.16%; viability, T/C [25]: 0.15%; viability, T/C [26]: 0.13%; viability, T/C [27]: 0.1%; viability, T/C [28]: 0.09%; viability, T/C [29]: 0.15%
